# What was measured:
# HDAC4 [1] = molecular target: T1, HDAC4 (Mus musculus, UniProt Q6NZM9); conditions: daily injection
# HDAC4 [2] = molecular target: T1, HDAC4; experiment: muscle atrophy after surgical denervation of siRNA-electroporated tibialis anterior (fiber size, atrophy genes by RT-PCR); format: in vivo; design: HDAC4 siRNA results in more than 80% reduction in HDAC4; from tissue; host or cells: mouse tibialis anterior muscle, in vivo
# Description: (§1) Mouse Procedures. Mice were anaesthetized with a Ketamine/Xylazine mixture (25 mg/ml Ketamine, 1 mg/ml Xylazine in 0.9% NaCl; 100 ul used per mouse. Hair was removed from area surrounding muscle. For denervation, sciatic nerve was exposed and ˜[…] piece of nerve was cut and removed. Incision was sutured and mice were allowed to recover. For overexpression electroporation analysis, 25 ug GFP, HDAC4-GFP, or HDAC4-3SA-GFP was used for injection. For siRNA experiments, 500 pmol siRNA oligo was used for injection. DNA or siRNA were directly injected into TA muscles using cemented MicroSyringe (VWR). ECM 830 electroporator (BTX) was used for all electroporations. Tweezertrodes (Model 520) were coated with transmission gel and were placed outside the skin around the muscle belly and pulsed 5 times at 50V, 60 ms duration, with 200 ms interval time. Mice were allowed to recover in their cages. Stealth siRNA duplexed oligos are from Invitrogen. Sequences are; mouse HDAC4: 5′ […] 3′ (SEQ ID NO:3), mouse HDAC5: 5′ […] 3′ (SEQ ID NO:4).
# RNA analysis. For RNA analysis, TA muscles were dounce homogenized in 1 ml Tri reagent (MRC) and incubated at 4° C. overnight. 200 ul chloroform was added, and after vigorous shaking, samples were centrifuged at 12000 rpm for 10 min. Top aqueous layer was added to 500 ul isopropanol, mixed well, and centrifuged at 12000 rpm for 10 min. RNA pellet was washed with 70% ethanol, air-dried, and resuspended in DEPC water for RT-PCR analysis. For northern blotting, 10 ug total RNA was run on a 1% formaldehyde RNA gel. Gel was transferred onto Hybond N+ membrane and probed using radiolabeled fragments of HDAC4 or Atrogin-1 cDNA generated from Prime-it kit II (Stratagene). Blots were exposed for 2 hr at −80° C. For RT-PCR analysis, total RNA was DNase treated using DNA-free kit (Ambion), and 1 ug RNA was used for cDNA synthesis reaction using iScript cDNA Synthesis Kit (Biorad). Samples were diluted 1:50 and 5 ul cDNA was used per RT-PCR reaction. Real-time quantitative PCR was performed using iQ SYBER Green Supermix on the iCycler™ iQ Detection System (Biorad). Sample volume was 20 ul per reaction. Efficiency and specificity of primers were confirmed by standard PCR and DNA electrophoresis. RT-PCR Program on iCycler™ was 95° C. 15 sec, 60° C. 30 sec, 72° C. 30 sec. All real-time PCR values were normalized to either actin or 18S rRNA. RT-PCR primer sequences are as follows: G-actin: forward 5′-[…] 3′ (SEQ ID NO:5), reverse 5′ […] 3′ (SEQ ID NO:6); 18S: forward 5′ […] 3′ (SEQ ID NO:7), reverse 5′ […] 3′ (SEQ ID NO:8); Dach2: forward 5′-[…] 3′ (SEQ ID NO:9), reverse 5′ […] 3′ (SEQ ID NO:10); nAChRα: forward 5′ CGTCTGGTGGCAAAGCT 3′ (SEQ ID NO:11), reverse 5′-CCGCTCTCCATGAAGTT 3′ (SEQ ID NO:12); MGN: forward 5′-[…] […]
# To establish a role for HDAC4 in muscle atrophy, scrambled control siRNA or HDAC4-specific siRNA were electroporated into tibialis anterior (TA) followed by denervation. […] The extent of muscle atrophy was then analyzed by measuring muscle fiber size and the induction of atrophy-specific genes, MuRF1 and atrogin 1, two E3 ligases essential for muscle atrophy. […]
# HDAC4 [3] = molecular target: T1, HDAC4; experiment: PGC-1α and myoglobin expression in tibialis anterior electroporated with HDAC4-siRNA; format: in vivo; design: HDAC4 siRNA results in more than 80% reduction in HDAC4; from tissue; host or cells: mouse tibialis anterior muscle, in vivo; conditions: fast/glycolytic tibialis anterior muscle
# Description: as §1
# RNA analysis. For RNA analysis, TA muscles were dounce homogenized in 1 ml Tri reagent (MRC) and incubated at 4° C. overnight. 200 ul chloroform was added, and after vigorous shaking, samples were centrifuged at 12000 rpm for 10 min. […] Real-time quantitative PCR was performed using iQ SYBER Green Supermix on the iCycler™ iQ Detection System (Biorad). […]
# HDAC4 [4] = molecular target: T1, HDAC4; experiment: in vivo siRNA knockdown in mouse tibialis muscle, denervation, RT-PCR of Dach2/MGN/nAChR; design: HDAC4 siRNA results in more than 80% reduction in HDAC4; from tissue; host or cells: mouse tibialis anterior muscle, in vivo; conditions: siRNA electroporated into tibialis, denervated 3 days
# Description: as §1
# RNA analysis. For RNA analysis, TA muscles were dounce homogenized in 1 ml Tri reagent (MRC) and incubated at 4° C. overnight. 200 ul chloroform was added, and after vigorous shaking, samples were centrifuged at 12000 rpm for 10 min. Top aqueous layer was added to 500 ul isopropanol, mixed well, and centrifuged at 12000 rpm for 10 min. RNA pellet was washed with 70% ethanol, air-dried, and resuspended in DEPC water for RT-PCR analysis. For northern blotting, 10 ug total RNA was run on a 1% formaldehyde RNA gel. Gel was transferred onto Hybond N+ membrane and probed using radiolabeled fragments of HDAC4 or Atrogin-1 cDNA generated from Prime-it kit II (Stratagene). Blots were exposed for 2 hr at −80° C. For RT-PCR analysis, total RNA was DNase treated using DNA-free kit (Ambion), and 1 ug RNA was used for cDNA synthesis reaction using iScript cDNA Synthesis Kit (Biorad). Samples were diluted 1:50 and 5 ul cDNA was used per RT-PCR reaction. Real-time quantitative PCR was performed using iQ SYBER Green Supermix on the iCycler™ iQ Detection System (Biorad). […]
# T1 sequence (Q6NZM9 whole entry): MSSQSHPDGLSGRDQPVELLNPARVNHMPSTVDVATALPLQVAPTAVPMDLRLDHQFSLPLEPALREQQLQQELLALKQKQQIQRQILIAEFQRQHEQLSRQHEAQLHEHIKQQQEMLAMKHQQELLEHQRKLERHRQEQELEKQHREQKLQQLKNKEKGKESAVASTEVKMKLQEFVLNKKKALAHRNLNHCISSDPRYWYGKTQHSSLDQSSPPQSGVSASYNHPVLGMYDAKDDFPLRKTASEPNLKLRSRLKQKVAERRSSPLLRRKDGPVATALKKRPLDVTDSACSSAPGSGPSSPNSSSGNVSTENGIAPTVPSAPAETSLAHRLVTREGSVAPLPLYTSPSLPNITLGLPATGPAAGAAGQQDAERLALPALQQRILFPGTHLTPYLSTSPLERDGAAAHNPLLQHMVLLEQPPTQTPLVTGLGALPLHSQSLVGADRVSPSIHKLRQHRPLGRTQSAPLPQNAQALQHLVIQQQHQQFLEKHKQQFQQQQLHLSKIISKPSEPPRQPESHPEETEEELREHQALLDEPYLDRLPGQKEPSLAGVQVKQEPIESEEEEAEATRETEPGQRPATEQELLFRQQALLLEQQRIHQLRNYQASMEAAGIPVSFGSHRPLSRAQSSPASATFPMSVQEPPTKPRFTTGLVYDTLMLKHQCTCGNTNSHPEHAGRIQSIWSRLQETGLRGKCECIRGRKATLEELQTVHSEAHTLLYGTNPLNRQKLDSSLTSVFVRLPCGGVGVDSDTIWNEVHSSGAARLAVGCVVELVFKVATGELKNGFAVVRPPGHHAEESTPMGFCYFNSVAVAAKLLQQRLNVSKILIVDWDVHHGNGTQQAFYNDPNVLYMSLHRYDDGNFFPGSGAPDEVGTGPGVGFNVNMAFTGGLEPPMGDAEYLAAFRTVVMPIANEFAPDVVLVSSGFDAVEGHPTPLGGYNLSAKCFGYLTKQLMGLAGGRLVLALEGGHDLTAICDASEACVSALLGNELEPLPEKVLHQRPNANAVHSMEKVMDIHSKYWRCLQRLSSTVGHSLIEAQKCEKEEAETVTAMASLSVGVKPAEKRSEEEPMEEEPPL
level of PGC-1α (HDAC4 [1]),atrogin 1 expression after denervation (HDAC4 [2]; RT-PCR),induction of MuRF1 by denervation (HDAC4 [2]; RT-PCR),"atrophy (reduction in TA muscle size) after denervation (HDAC4 [2]; denervation for 12 days, versus control siRNA)",reduction in HDAC4 (HDAC4 [2]; siRNA electroporated into tibialis anterior),size of individual fibers of denervated muscles (HDAC4 [2]; versus fibers that received control siRNA),PGC-1α expression (HDAC4 [3]),myoglobin expression (HDAC4 [3]),induction of MGN after denervation (HDAC4 [4]),induction of nAChR after denervation (HDAC4 [4]),repression of Dach2 that occurs during denervation (HDAC4 [4]; 7 days after electroporation),Substance
increase,–,–,–,–,–,–,–,–,–,–,Trichostatin A
–,modestly affected,significantly inhibited,largely prevented,more than 80%,much larger,elevation,elevation,dramatically reduced,dramatically reduced,significantly alleviates,5′ CACCGGAACCUGAACCACUGCAUUU 3′ (SEQ ID NO:3) [HDAC4 siRNA]

# Source: patent US7737175B2, “Methods and compositions for regulating HDAC4 activity” (Duke University, priority 2007, dated 2010)
